Tests used:
Type in all cases: cell-based
[1] = tested on: Escherichia coli; test: Agar dilution MIC (Table II); details: inoculum 1 to 5 x 10^4 CFU, about 18 hours, 35°C
Procedure: (§1) The in vitro antibacterial activity of dihydro LL-E33288gamma l-I was determined against a spectrum of gram-positive and gram-negative bacteria by a standard agar dilution method. Mueller-Hinton agar containing two-fold decreasing concentrations of the antibiotics was poured into petri plates. The agar surfaces were inoculated with 1 to 5 x 10^4 colony forming units of bacteria by means of a Steers replicating device.

[2] = tested on: Enterobacter cloacae; test: Agar dilution MIC (Table II); details: Enterobacter cloacae CMC 84-4; inoculum 1 to 5 x 10^4 CFU; about 18 hours, 35°C
Procedure: as §1

[3] = tested on: Morganella morganii; test: Agar dilution MIC (Table II); details: Morganella morganii IO 83-18; inoculum 1 to 5 x 10^4 CFU; about 18 hours, 35°C
Procedure: as §1

[4] = tested on: Staphylococcus aureus; test: Agar dilution MIC (Table II); details: inoculum 1 to 5 x 10^4 CFU, about 18 hours, 35°C
Procedure: as §1

[5] = tested on: Citrobacter diversus; test: Agar dilution MIC (Table II); details: Citrobacter diversus K-82-24; inoculum 1 to 5 x 10^4 CFU; about 18 hours, 35°C
Procedure: as §1

[6] = tested on: Pseudomonas aeruginosa; test: Agar dilution MIC (Table II); details: inoculum 1 to 5 x 10^4 CFU, about 18 hours, 35°C
Procedure: as §1

[7] = tested on: Serratia marcescens; test: Agar dilution MIC (Table II); details: inoculum 1 to 5 x 10^4 CFU, about 18 hours, 35°C
Procedure: as §1

[8] = tested on: Klebsiella pneumoniae; test: Agar dilution MIC (Table II); details: inoculum 1 to 5 x 10^4 CFU, about 18 hours, 35°C
Procedure: as §1

[9] = tested on: Acinetobacter sp; test: Agar dilution MIC (Table II); details: inoculum 1 to 5 x 10^4 CFU, about 18 hours, 35°C
Procedure: as §1

[10] = tested on: Enterobacter aerogenes; test: Agar dilution MIC (Table II); details: Enterobacter aerogenes IO 83-44; inoculum 1 to 5 x 10^4 CFU; about 18 hours, 35°C
Procedure: as §1

[11] = tested on: Streptococcus faecalis; test: Agar dilution MIC (Table II); details: inoculum 1 to 5 x 10^4 CFU, about 18 hours, 35°C
Procedure: as §1

[12] = tested on: Staphylococcus epidermidis; test: Agar dilution MIC (Table II); details: inoculum 1 to 5 x 10^4 CFU, about 18 hours, 35°C
Procedure: as §1

[13] = tested on: Providencia stuartii; test: Agar dilution MIC (Table II); details: Providencia stuartii CMC 83-82; inoculum 1 to 5 x 10^4 CFU; about 18 hours, 35°C
Procedure: as §1

[14] = tested on: Citrobacter freundii; test: Agar dilution MIC (Table II); details: Citrobacter freundii IO 83-13; inoculum 1 to 5 x 10^4 CFU; about 18 hours, 35°C
Procedure: as §1

[15] = tested on: E. coli-lambda lysogen; test: Biochemical Induction Assay (BIA), modified; details: ability to directly or indirectly initiate DNA damage
Excerpt: The LL-E33288 antibiotics are active against gram-positive and gram-negative bacteria. Each of the components were also found to be active in a modification of the Biochemical Induction Assay [Elespuru, R. and Yarmolinsky, M., Environmental Mutagenesis, 1, 65-78 […]], a test which specifically measures the ability of an agent to directly or indirectly initiate DNA damage. In this assay, both LL-E33288γ1-I and LL-E33288δ1-I were active at concentrations lower than 1x10^-6 mcg/ml.
This pseudoaglycone is also active as an antitumor agent as determined in the Biochemical Induction Assay (BIA), a bacterial assay system which specifically measures the ability of an agent to directly or indirectly initiate DNA damage. The indicator organism for this test is an E. coli-lambda lysogen, genetically constructed such that a DNA damaging event results in the expression of the gene for the enzyme β-galactosidase. This enzyme can be determined qualitatively or quantitatively by biochemical assay as an indication that DNA damage has occurred.
A modified version of the quantitative liquid BIA disclosed by Elespuru, R. and Yarmolinsky, M., Environmental Mutagenesis, 1, 65 (1979) was used to evaluate these compounds.

## Dihydro-LL-E33288γ1-I [Dihydro-LL-E33288gamma1-I]
[1]; Escherichia coli ATCC 25922
  Minimal Inhibitory Concentration: 1 µg/mL
[1]; Escherichia coli CMC 84-11
  Minimal Inhibitory Concentration: 2 µg/mL
[1]; Escherichia coli No. 311(MP)
  Minimal Inhibitory Concentration: 2 µg/mL
[2]
  Minimal Inhibitory Concentration: 2 µg/mL
[3]
  Minimal Inhibitory Concentration: 1 µg/mL
[4]; Staphylococcus aureus ATCC 25923
  Minimal Inhibitory Concentration: 0.06 µg/mL
[4]; Staphylococcus aureus SSC 82-20
  Minimal Inhibitory Concentration: 0.06 µg/mL
[4]; Staphylococcus aureus SSC 82-21
  Minimal Inhibitory Concentration: 0.004 µg/mL
[4]; Staphylococcus aureus SSC 82-23
  Minimal Inhibitory Concentration: 0.008 µg/mL
[4]; Staphylococcus aureus SSC 82-24
  Minimal Inhibitory Concentration: 0.002 µg/mL
[4]; Staphylococcus aureus SSC 82-54
  Minimal Inhibitory Concentration: 0.06 µg/mL
[4]; Staphylococcus aureus Smith(MP)
  Minimal Inhibitory Concentration: 0.004 µg/mL
[5]
  Minimal Inhibitory Concentration: 2 µg/mL
[6]; Pseudomonas aeruginosa 12-4-4(MP)
  Minimal Inhibitory Concentration: 2 µg/mL
[6]; Pseudomonas aeruginosa ATCC 27853
  Minimal Inhibitory Concentration: 2 µg/mL
[7]; Serratia marcescens CMC 83-27
  Minimal Inhibitory Concentration: 2 µg/mL
[7]; Serratia marcescens F-35(MP)
  Minimal Inhibitory Concentration: 2 µg/mL
[8]; Klebsiella pneumoniae AD(MP)
  Minimal Inhibitory Concentration: 1 µg/mL
[8]; Klebsiella pneumoniae CMC 84-5
  Minimal Inhibitory Concentration: >2 µg/mL
[9]; Acinetobacter sp CMC 83-89
  Minimal Inhibitory Concentration: 2 µg/mL
[9]; Acinetobacter sp IO 83-49
  Minimal Inhibitory Concentration: >2 µg/mL
[10]
  Minimal Inhibitory Concentration: 2 µg/mL
[11]; Streptococcus faecalis ATCC 29212
  Minimal Inhibitory Concentration: 0.001 µg/mL
[11]; Streptococcus faecalis CMC 83-53
  Minimal Inhibitory Concentration: 0.015 µg/mL
[11]; Streptococcus faecalis IO 83-28
  Minimal Inhibitory Concentration: 0.015 µg/mL
[12]; Staphylococcus epidermidis ATCC 12228
  Minimal Inhibitory Concentration: 0.015 µg/mL
[12]; Staphylococcus epidermidis CMC 83-133
  Minimal Inhibitory Concentration: 0.015 µg/mL
[13]
  Minimal Inhibitory Concentration: 2 µg/mL
[14]
  Minimal Inhibitory Concentration: 2 µg/mL

## CCN[C@H]1CO[C@@H](O[C@H]2[C@H](O[C@H]3C#CC=CC#C[C@@]4(O)CC(=O)C(NC(=O)OC)=C3/C4=C\CSSSC)O[C@H](C)[C@@H](NO[C@H]3C[C@H](O)[C@H](SC(=O)c4c(C)c(I)c(O[C@@H]5O[C@@H](C)[C@H](O)[C@@H](OC)[C@H]5O)c(OC)c4OC)[C@@H](C)O3)[C@@H]2O)C[C@@H]1OC (stereo in doubt) [LL-E33288γ1-I]
[15]
  active at concentrations: lower than 1x10^-6 mcg/ml
